This assay has as its system women suffering from Alzheimer's disease. The assay can be described thus: mini-mental state examination (MMSE) in patients with Alzheimer's disease. Type of assay: in vivo. The procedure: To two women suffering from Alzheimer's disease (one was […] and the other was […]), donepezil hydrochloride (Aricept®) had been administered in a dose of 5 mg/day for 12 months and 9 months, respectively. […] At the beginning time of the experiment (0 month), the administration of cilostazol in a dose of 100 mg/day started as the combination with donepezil hydrochloride.

Structures can show the parent of a compound that is named as a salt.

With `COc1cc2c(cc1OC)C(=O)C(CC1CCN(Cc3ccccc3)CC1)C2` (stereo not drawn) [donepezil hydrochloride], the “MMSE Score” value runs as follows: (Patient 1, at start of cilostazol, donepezil hydrochloride 5 mg/day alone until then) 13; (Patient 1, −3 Ms, donepezil hydrochloride 5 mg/day alone) 16; (Patient 1, −6 Ms, donepezil hydrochloride 5 mg/day alone) 17; (Patient 1, −9 Ms, donepezil hydrochloride 5 mg/day alone) 17; (Patient 2, at start of cilostazol, donepezil hydrochloride 5 mg/day alone until then) 6; (Patient 2, −3 Ms, donepezil hydrochloride 5 mg/day alone) 10. Further, the “MMSE Score” value runs as follows: (Patient 2, −6 Ms, donepezil hydrochloride 5 mg/day alone) 12; (Patient 2, −9 Ms, donepezil hydrochloride 5 mg/day alone) 13; (Patient 2, −12 Ms, donepezil hydrochloride 5 mg/day alone) 16.
